Laboratory results from US20240308987A1, “SMALL MOLECULE INHIBITOR AGAINST NASOPHARYNGEAL CARCINOMA, PREPARATION METHOD AND APPLICATION THEREOF” (SHENZHEN BAY LABORATORY, priority 2021, published 2024).
pEC50: −log10 of the molar value.

tested on: C666-1 cells; test: C666-1 Cell Viability Assay (Resazurin cytotoxicity test); assay type: cell-based; conditions: Homo sapiens, C6661, EB virus-positive C666-1 cells, 72 hours treatment, 100-0.78 micromole/L, read-out: Inhibitory Rate
Outline: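 EBV-positive nasopharyngeal carcinoma C666-1 cells, 5×10^3 per well, were grown 24 h, then exposed to compound for 72 h at 37 °C (8-point two-fold dilutions, final 100–0.78 µM). Viability was read by resazurin reduction fluorescence after 3 h; EC50 came from the fitted inhibition curve.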

Compound	pEC50
O=C(Nc1ccc(OC2CN(c3cccc(C(=O)O)c3-n3cccc3)C2)cc1)Nc1cncc(F)c1 [Example 46a, 3-(3-(4-(3-(5-fluoropyridin-3-yl)ureido)phenoxy)azetidin-1-yl)-2-(1H-pyrrol-1-yl) benzoic acid]	5.00 to 6.00
COC(=O)c1cccc(N2CC(Oc3ccc(NC(=O)Nc4cncc(C)c4)cc3)C2)c1-n1cccc1 [Example 47, methyl 3-(3-(4-(3-(5-methylpyridin-3-yl)ureido)phenoxy)azetidin-1-yl)-2-(1H-pyrrol-1-yl) benzoate]	4.30 to 5.00
Cc1cncc(NC(=O)Nc2ccc(OC3CN(c4cccc(C(=O)O)c4-n4cccc4)C3)cc2)c1 [Example 47a, 3-(3-(4-(3-(5-methylpyridin-3-yl)ureido)phenoxy)azetidin-1-yl)-2-(1H-pyrrol-1-yl) benzoic acid]	> 6.00
COC(=O)c1cccc(N2CC(Oc3ccc(NC(=O)Cc4cccnc4)cc3)C2)c1-c1cccc(Cl)c1 [Example 48, methyl 3′-chloro-6-(3-(4-(2-(pyridin-3-yl)acetamido)phenoxy)azetidin-1-yl)-[1,1′-biphenyl]-2-carboxylate]	> 6.00
O=C(Cc1cccnc1)Nc1ccc(OC2CN(c3cccc(C(=O)O)c3-c3cccc(Cl)c3)C2)cc1 [Example 48a, 3′-chloro-6-(3-(4-(2-(pyridin-3-yl)acetamido)phenoxy)azetidin-1-yl)-[1,1′-biphenyl]-2-carboxylic acid]	4.30 to 5.00
COC(=O)c1cccc(N2CC(Oc3ccc(NC(=O)Cc4cccnc4)cc3)C2)c1 [Example 49, methyl 3-(3-(4-(2-(pyridin-3-yl)acetamido)phenoxy)azetidin-1-yl) benzoate]	5.00 to 6.00
O=C(Cc1cccnc1)Nc1ccc(OC2CN(c3cccc(C(=O)O)c3)C2)cc1 [Example 49a, 3-(3-(4-(2-(pyridin-3-yl)acetamido)phenoxy)azetidin-1-yl) benzoic acid]	4.30 to 5.00
COC(=O)c1cccc(N2CC(Oc3ccc(NC(=O)Nc4cccnc4)cc3)C2)c1 [Example 50, methyl 3-(3-(4-(3-(pyridin-3-yl)ureido)phenoxy)azetidin-1-yl) benzoate]	5.00 to 6.00
O=C(Nc1ccc(OC2CN(c3cccc(C(=O)O)c3)C2)cc1)Nc1cccnc1 [Example 50a, 3-(3-(4-(3-(pyridin-3-yl)ureido)phenoxy)azetidin-1-yl) benzoic acid]	5.00 to 6.00
COC(=O)c1cccc(N2CC(Oc3ccc(NC(=O)Cc4cccnc4)cc3)C2)c1-n1cccc1 [Example 51, methyl 3-(3-(4-(2-(pyridin-3-yl)acetamido)phenoxy)azetidin-1-yl)-2-(1H-pyrrol-1-yl) benzoate]	> 6.00
O=C(Cc1cccnc1)Nc1ccc(OC2CN(c3cccc(C(=O)O)c3-n3cccc3)C2)cc1 [Example 51a, 3-(3-(4-(2-(pyridin-3-yl)acetamido)phenoxy)azetidin-1-yl)-2-(1H-pyrrol-1-yl) benzoic acid]	> 6.00
COC(=O)c1cccc(N2CC(Oc3ccc(NC(=O)Cc4cccnc4)c(F)c3)C2)c1-n1cccc1 [Example 52, methyl 3-(3-(3-fluoro-4-(2-(pyridin-3-yl)acetamido)phenoxy)azetidin-1-yl)-2-(1H-pyrrol-1-yl) benzoate]	> 6.00
O=C(Cc1cccnc1)Nc1ccc(OC2CN(c3cccc(C(=O)O)c3-n3cccc3)C2)cc1F [Example 52a, 3-(3-(3-fluoro-4-(2-(pyridin-3-yl)acetamido)phenoxy)azetidin-1-yl)-2-(1H-pyrrol-1-yl) benzoic acid]	> 6.00
COC(=O)c1cccc(N2CC(Oc3ccc(NC(=O)Cc4cccnc4)cc3)C2)c1C [Example 53, methyl 2-methyl-3-(3-(4-(2-(pyridin-3-yl)acetamido)phenoxy)azetidin-1-yl) benzoate]	4.30 to 5.00
Cc1c(C(=O)O)cccc1N1CC(Oc2ccc(NC(=O)Cc3cccnc3)cc2)C1 [Example 53a, 2-methyl-3-(3-(4-(2-(pyridin-3-yl)acetamido)phenoxy)azetidin-1-yl) benzoic acid]	4.30 to 5.00
